The text below walks through data of EP4696691A1, “TRICYCLIC COMPOUND, AND PREPARATION METHOD THEREFOR AND USE THEREOF” (Shanghai Huilun Pharmaceutical Co., Ltd., priority 2023, dated 2024).

One may read the Cmax as the peak of the concentration-time curve. The term Vss denotes a proportionality between amount in the body and measured concentration, not a real space. A low value points to little distribution into tissue. For orientation: IC50 means the concentration that inhibits the measured activity by half.

For data set [1], the target named is T1, IRAK4-HiBiT fusion protein (Homo sapiens, UniProt Q9NWZ3).
T1 construct: K562 from ATCC
T1 sequence (Q9NWZ3 1-460): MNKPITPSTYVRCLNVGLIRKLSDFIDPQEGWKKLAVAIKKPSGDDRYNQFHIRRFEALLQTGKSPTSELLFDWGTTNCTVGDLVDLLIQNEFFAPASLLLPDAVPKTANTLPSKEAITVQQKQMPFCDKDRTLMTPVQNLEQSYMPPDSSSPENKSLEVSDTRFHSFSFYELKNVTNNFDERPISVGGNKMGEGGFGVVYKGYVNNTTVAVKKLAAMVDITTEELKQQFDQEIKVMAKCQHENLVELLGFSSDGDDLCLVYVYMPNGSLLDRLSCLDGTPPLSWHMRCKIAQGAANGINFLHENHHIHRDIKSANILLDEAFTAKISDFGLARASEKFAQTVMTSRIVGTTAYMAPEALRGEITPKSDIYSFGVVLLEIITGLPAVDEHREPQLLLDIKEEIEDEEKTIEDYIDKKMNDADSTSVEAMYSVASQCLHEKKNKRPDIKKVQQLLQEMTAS
In words: Detection of HiBiT-IRAK4 proteolysis levels in K562 IRAK4-HiBiT cells (Nano-Glo HiBiT Lytic assay). The data set is classed as cell-based. Here is the method:
Test Example 1 Detection of HiBiT-IRAK4 proteolysis levels in K562 IRAK4-HiBiT cells co-incubated with compounds of the present application • Reagents, devices, and consumables in experiments: • Nano-Glo Lytic Detection Assay, purchased from Promega; • EnVision, purchased from PerkinElmer; • Name of cell line: K562 IRAK4-HiBiT stable transformation cell strain (capable of stably expressing IRAK4-HiBiT fusion protein), constructed by Shanghai Bioduro Biologics Co., Ltd., where a K562 cell strain was purchased from ATCC. The culture medium is IMDM+10% FBS+1% P/S (volume percentage, where FBS is fetal bovine serum and P/S is Penicillin-Streptomycin, a 1:1 mixture of penicillin and streptomycin antibiotic solution (10,000 units/mL)).
Cell culture: K562 IRAK4-HiBiT cells were incubated at 37°C, and passaged every 2-3 d, with a seeding density of 200,000 cells/mL.
IRAK4-HiBiT proteolysis experiment: • Step 1: Cell seeding and treatment of compound • 1. A 10 mM compound mother liquor was prepared using DMSO, and a compound solution with a working concentration of 1,000 times (the highest working concentration is 10 µM, diluted 3.162 times, with a total of 10 concentration gradients) was prepared using Bravo automatic liquid processing platform. • 2. 40 nL of a compound working solution was transferred to a 384 well plate, and an equal volume of DMSO was added to positive control wells. • 3. 20 µL of a culture solution was added per well and shaken for 10 min. • 4.20 µL of a K562 IRAK4-HiBiT cell suspension was added per well (6,000 cells/well), and an equal volume of culture medium was added to negative control wells. • 5. The well plate was rotated at 1,000 rpm for 1 min. • 6. The cells were incubated in a 5% CO2 incubator at 37°C for 2 h or 6 h. • Step 2: HiBiT Lytic experiment • 1. The well plate was placed at room temperature to equilibrate for 30 min. • 2. 20 µL of Nano-Glo HiBiT Lytic reagent (trade name: Nano-Glo® HiBiT Lytic Detection Reagent) and the well plate was kept in the dark. • 3. The well plate was placed on an orbital shaker at 300 rpm for 5 min. • 4. The cells were incubated at room temperature for 10 min. • 5. The luminous value was read by Envision. • 6. Data was calculated and processed. Degradation degree%=(negative control - experimental well)/(negative control - positive control) * 100%. Using XL-fit software, a degradation curve was obtained by fitting using a 4 Parameter Logistic Model, and the values of Relative DC50 (nM) and Absolute DC50 (nM) were obtained.

Data set [2] is described as follows: Pharmacokinetic behavior in mice (plasma concentration by LC-MS/MS). The data set is classed as in vivo. The conditions noted are these: male ICR mice. Here is the method: Three healthy ICR mice (SPF grade, from Beijing Vital River Laboratory Animal Technology Co., Ltd.), male, weighing 18-25 g, were intravenously injected with a compound (1 mg/kg) at a volume of 5 mL/kg. The compound was prepared using 5% DMSO+10% Solutol+85% Saline (w/v), and the animals were not fasted before the experiment.
Three healthy ICR mice (SPF grade, from Beijing Vital River Laboratory Animal Technology Co., Ltd.), male, weighing 18-25 g, were intragastrically administered a compound (5 mg/kg) at a volume of 10 mL/kg. The compound was prepared using 5% DMSO+10% Solutol+85% Saline (w/v), and the animals were not fasted before the experiment.
Blood samples (about 0.05 mL each) were collected from the cheeks at 5 min, 15 min, 30 min, 1 h, 2 h, 4 h, 6 h, 8 h, and 24 h after intravenous administration, and at 5 min, 15 min, 30 min, 1 h, 2 h, 4 h, 6 h, 8 h, and 24 h after intragastrical administration, and anticoagulated with heparin sodium. Following collection, the blood samples were placed on ice and the plasma was centrifuged within 1 h (centrifugation conditions: 6,000 g, 3 min, 2 °C to 8°C). The concentration of the compounds in the plasma was determined by liquid chromatography tandem mass spectrometry. The plasma samples were stored in a -80°C freezer before analysis. With plasma concentration data at different time points, pharmacokinetic parameters were calculated by Phoenix WinNonlin8.2.0, and the results are shown in Table 4: Table 4

Data set [3] deals with LPS induced IL-6 release in human PBMC cells. The data set is described as follows: Inhibition of LPS induced IL-6 release in human PBMC cells (IL-6 HTRF assay). Type of data set: cell-based. The following applies: 2 h compound pre-incubation, LPS 5 ng/mL for 4 h, IL-6 in supernatant. As for the experimental part:
I. Recovery and seeding of PBMC, and treatment of compounds (human PBMC cells were purchased from Oricell, item number: Fpb003F)
• 1. Preparation of compounds Sample dilutions of a series of concentrations were obtained by dilution in DMSO using Bravo, and then 80 nL was transferred into a cell plate using ECHO. The final concentration of DMSO in the cell culture medium is 0.1%. • 2. Frozen cells were quickly thawed in a 37°C water bath and stirred continuously. • 3. 25 mL of fresh preheated culture medium was added into a 50 mL centrifuge tube, and then the cells were added dropwise. Then the cells were centrifuged at 2,000 rpm for 10 min. • 4. […] The total number of cells required was calculated based on cell concentration to perform the assay. 7×10e4 cells were added per well (70 µL). • 6. The cell plate was placed and incubated in a 5% CO2 incubator at 37°C for 2 h.
• 1. LPS: A stock solution (1 mg/mL) was diluted in dH2O, aliquoted, and stored at -80°C. • 2. 8-fold LPS was added per well (10 µl/well) (with a final concentration of 5 ng/mL). The cells were incubated in a 5% CO2 incubator at 37°C for 4 h. • 3. 70 µl of supernatant was collected per well using Bravo, and then IL-6 HTRF assay was performed. The supernatant may be stored at -80°C.
1. Preparation of standards and sample dilutions. 2. 16 µL of each sample was taken using Bravo and added to wells. Then 16 µL of each standard was taken and added to corresponding wells. 3.4 µL of a premixed IL6 antibody working solution was added to each of all wells. 4. The cell plate was sealed and incubated at room temperature for 2 h. 5.
On the technique in general: TR-FRET usually uses a lanthanide donor and a delayed reading to cut background.

The mark [4] stands for this setting: 2 h incubation, read-out: Absolute DC50.
Setting [5] is: 2 h incubation, read-out: Relative DC50.
Where [6] appears, read: Intragastric administration (5 mg/kg), 5 mg/kg.
Where [7] appears, read: Intravenous injection (1 mg/kg), 1 mg/kg.
Setting [8] is: Intragastric administration (5 mg/kg).
Setting [9] is: Intravenous injection (1 mg/kg).
The mark [10] stands for this setting: 6 h incubation, read-out: Absolute DC50.
[11] abbreviates: 6 h incubation, read-out: Relative DC50.

Like-named read-outs stand apart in the source and are kept apart here.

In data set [1] (2 h incubation), `CC(C)(O)c1cc2nn([C@H]3CC[C@H](CCN4CCN5c6ccc(C7(C)CCC(=O)NC7=O)cc6OC[C@H]5C4)CC3)cc2cc1NC(=O)c1cccc(C(F)(F)F)n1` (single isomer, unassigned) [Compound 120-b-2] gave a Dmax of 93%. In addition, the DC50 in data set [1] (setting [4]) is 23.7 nM. Further, the DC50 in data set [1] (setting [5]) was 21.4 nM. In data set [2] (setting [6]), the AUClast amounted to 24277 ng·h/mL, the Cmax was determined as 1790 ng/mL, the F% is on record as 98.6% and the T1/2 is 9.45 h. In data set [2] (setting [7]), this compound had an AUClast of 4925 ng·h/mL, a CL of 3.03 mL/min/kg, a Cmax of 725 ng/mL and a Vss of 1.80 L/kg. The IC50 in data set [3] is 0.75 nM.

In turn, `CC(C)(O)c1cc2nn([C@H]3CC[C@H](CCN4CCN5c6ccc(C7CCC(=O)NC7=O)cc6OC[C@@H]5C4)CC3)cc2cc1NC(=O)c1cccc(C(F)(F)F)n1` (some centres unmarked) [Compound 1-a] registered a Dmax in data set [1] (2 h incubation) of 90%. Further, the DC50 in data set [1] (setting [4]) is 0.42 nM. Further, the DC50 in data set [1] (setting [5]) is 0.58 nM. In data set [2] (setting [8]), the AUClast was found to be 19336 ng·h/mL, the Cmax worked out at 1067 ng/mL, the F% was determined as 31.7% and the T1/2 is 17.5 h. In data set [2] (setting [9]), this compound registered an AUClast of 8794 ng·h/mL, a CL of 1.25 mL/min/kg, a Cmax of 832 ng/mL and a Vss of 1.64 L/kg. 0.91 nM corresponded to half-maximal inhibition in data set [3] (IC50).

Consider `CC(C)(O)c1cc2nn([C@H]3CC[C@H](CCN4CCN5c6ccc(C7CCC(=O)NC7=O)cc6OC[C@H]5C4)CC3)cc2cc1NC(=O)c1cccc(C(F)(F)F)n1` (some centres unmarked) [Compound 1-b], for which, in data set [1] (2 h incubation), the Dmax was determined as 88%. Also, the DC50 in data set [1] (setting [4]) stood at 0.54 nM. Moreover, the DC50 in data set [1] (setting [5]) was found to be 0.71 nM. Further, in data set [2] (setting [8]), the AUClast was 44547 ng·h/mL, the Cmax was 2623 ng/mL, the F% is on record as 79.5% and the T1/2 was 15.3 h. In addition, in data set [2] (setting [9]), the AUClast was 11208 ng·h/mL, the CL turned out to be 1.0 mL/min/kg, the Cmax is recorded as 1083 ng/mL and the Vss turned out to be 1.23 L/kg. In data set [3], the IC50 is 0.86 nM.

Regarding `CC(C)(O)c1cc2nn([C@H]3CC[C@H](CCN4CCN5c6ccc(C7CCC(=O)NC7=O)cc6OCC5C4)CC3)cc2cc1NC(=O)c1cccc(C(F)(F)F)n1` (some centres unmarked) [Compound 1], the Dmax in data set [1] (6 h incubation) is 91.1%. In addition, the DC50 in data set [1] (read-out: Absolute DC50, 6 h incubation) stood at 0.61 nM. The DC50 in data set [1] (read-out: Relative DC50, 6 h incubation) was 0.46 nM. In data set [2] (setting [8]), this compound registered an AUClast of 82491 ng·h/mL, a Cmax of 5153 ng/mL, a F% of 93.86% and a T1/2 of 8.03 h. For the same compound, in data set [2] (setting [9]), the AUClast was found to be 12937 ng·h/mL, the CL is 0.905 mL/min/kg, the peak concentration (Cmax) is on record as 1740 ng/mL and the Vss came out at 1.05 L/kg. In data set [3], this compound showed an IC50 of 1.15 nM.

On to `CC(C)(O)c1cc2nn([C@H]3CC[C@H](CCN4CCC5(CC4)OCc4cc(C6CCC(=O)NC6=O)ccc45)CC3)cc2cc1NC(=O)c1cccc(C(F)(F)F)n1` (some centres unmarked) [Compound 47], for which the Dmax in data set [1] (6 h incubation) stood at 93%. Besides, the DC50 came out at 0.65 nM in data set [1] (setting [10]) and 0.54 nM in data set [1] (setting [11]). Moreover, the midpoint of inhibition in data set [3], the IC50, lay at 0.52 nM.

Consider `CC(C)Oc1cc2nc([C@H]3CC[C@H](CCN4CCC5(CC4)OCc4cc(C6CCC(=O)NC6=O)ccc45)CC3)cn2cc1C(=O)Nc1cnn2cccnc12` (some centres unmarked) [Compound 94], for which, in data set [1] (6 h incubation), the Dmax was 97%. Besides, the values for the DC50 in data set [1] (setting [10]) and in data set [1] (setting [11]) were 3.82 nM and 3.97 nM, respectively. Also, half-maximal inhibition in data set [3] (IC50) required 64.5 nM.

`CC(C)Oc1cc2nc([C@H]3CC[C@H](CCN4CCN5c6ccc(C7CCC(=O)NC7=O)cc6OCC5C4)CC3)cn2cc1C(=O)Nc1cnn2cccnc12` (some centres unmarked) [Compound 100] returned a Dmax in data set [1] (2 h incubation) of 89%. The DC50 in data set [1] (setting [4]) and in data set [1] (setting [5]) was 17.6 nM in each case. This compound had an IC50 in data set [3] of 0.64 nM.

In the case of `CC(C)(O)c1cc2nn(C3CCC(CCN4CCN5c6c(F)cc(NC7CCC(=O)NC7=O)cc6OCC5C4)CC3)cc2cc1NC(=O)c1cccc(C(F)(F)F)n1` (centres unmarked) [Compound 113], in data set [1] (2 h incubation), the Dmax was 89%. For the same compound, the DC50 in data set [1] (setting [4]) was determined as 16.8 nM; in data set [1] (setting [5]), 16.1 nM. In addition, 0.19 nM corresponded to half-maximal inhibition in data set [3] (IC50).

Regarding `CN1C(=O)C2(CCN(CC[C@H]3CC[C@H](n4cc5cc(NC(=O)c6cccc(C(F)(F)F)n6)c(C(C)(C)O)cc5n4)CC3)CC2)c2ccc(C3CCC(=O)NC3=O)cc21` (some centres unmarked) [Compound 121], the Dmax in data set [1] (2 h incubation) was 92%. Also, the DC50 in data set [1] (setting [4]) amounted to 14 nM; in data set [1] (setting [5]), 10.8 nM. Half-maximal inhibition in data set [3] (IC50) was put at 0.1 nM.
